Common to all, as to assay: relative viability (nuclei count vs DMSO), 5 days (fraction); higher = more cells survive
Compound in the test “Veliparib + Trametinib”: C[C@]1(c2nc3c(C(N)=O)cccc3[nH]2)CCCN1 [Veliparib] + CC(=O)Nc1cccc(-n2c(=O)n(C3CC3)c(=O)c3c(Nc4ccc(I)cc4F)n(C)c(=O)c(C)c32)c1 [Trametinib] (partner 0.02 µM)
The essentials: (§1)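 Lung cancer cell lines, seeded in 1536-well plates, were treated the following day by pin tool with a single drug or with five library-drug doses (not always all listed) in √10 steps on top of a fixed anchor-drug dose. Cells were fixed and nuclei stained in one step after 5 days, and nuclei were counted. Relative viability is the nuclei count for treated wells divided by that for vehicle wells, reported as medians of duplicate plates.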

Compound in the test “Veliparib + Pictilisib”: C[C@]1(c2nc3c(C(N)=O)cccc3[nH]2)CCCN1 [Veliparib] + CS(=O)(=O)N1CCN(Cc2cc3nc(-c4cccc5[nH]ncc45)nc(N4CCOCC4)c3s2)CC1 [Pictilisib] (partner 1 µM)
The essentials:
as §1

Compound in test [1]: COC1=CC=C(C=C1)CN2C=CC3=C2C=C(C=C3)C(=O)NO + N=C(N)NC(=N)NCCc1ccccc1 [Phenformin] (partner 250 µM)
The essentials:
as §1

Compound in the test “Veliparib + Vorinostat”: C[C@]1(c2nc3c(C(N)=O)cccc3[nH]2)CCCN1 [Veliparib] + O=C(CCCCCCC(=O)Nc1ccccc1)NO [Vorinostat] (partner 1 µM)
The essentials: as §1

Consider 201T, for which the relative viability came to 0.762 with Veliparib + Trametinib (first compound 0.02 µM); 0.719 with Veliparib + Trametinib (first compound 0.06325 µM); 0.699 in the test with Veliparib + Trametinib (first compound 0.2 µM); 0.746 in the test with Veliparib + Trametinib (first compound 0.6325 µM); 0.738 with Veliparib + Trametinib (first compound 2 µM); 0.682 with Veliparib + Pictilisib (first compound 0.02 µM). Further, the relative viability in the test with Veliparib + Pictilisib (first compound 0.06325 µM) was 0.623; with Veliparib + Pictilisib (first compound 0.2 µM) it was 0.682; with Veliparib + Pictilisib (first compound 0.6325 µM), 0.678; with Veliparib + Pictilisib (first compound 2 µM) it was 0.658; in test [1] (first compound 0.08 µM) it was 0.487; in test [1] (first compound 0.253 µM), 0.466. For the same cell line, the relative viability in test [1] (first compound 0.8 µM) turned out to be 0.453; in test [1] (first compound 2.53 µM) it was 0.431; in test [1] (first compound 8 µM), 0.35; in the test with Veliparib + Vorinostat (first compound 0.02 µM) it was 0.922; in the test with Veliparib + Vorinostat (first compound 0.06325 µM) it was 0.954; with Veliparib + Vorinostat (first compound 0.2 µM), 0.929. In addition, the results for the relative viability with Veliparib + Vorinostat (first compound 0.6325 µM) and with Veliparib + Vorinostat (first compound 2 µM) were 1.16 and 0.928, respectively.
As to A549, the relative viability in the test with Veliparib + Pictilisib (first compound 0.02 µM) came out at 0.526; in the test with Veliparib + Pictilisib (first compound 0.06325 µM), 0.504; with Veliparib + Pictilisib (first compound 0.2 µM) it was 0.476; in the test with Veliparib + Pictilisib (first compound 0.6325 µM), 0.455; with Veliparib + Pictilisib (first compound 2 µM), 0.521; in test [1] (first compound 0.253 µM) it was 0.159. Also, the values for the relative viability in test [1] (first compound 0.8 µM), in test [1] (first compound 2.53 µM) and in test [1] (first compound 8 µM) were 0.173, 0.188 and 0.0674, respectively.
Take A-427: the relative viability worked out at 0.792 in the test with Veliparib + Trametinib (first compound 0.02 µM); 0.727 with Veliparib + Trametinib (first compound 0.06325 µM); 0.801 with Veliparib + Trametinib (first compound 0.2 µM); 0.722 in the test with Veliparib + Trametinib (first compound 0.6325 µM); 0.875 in the test with Veliparib + Trametinib (first compound 2 µM); 0.676 with Veliparib + Pictilisib (first compound 0.02 µM). Further, the relative viability with Veliparib + Pictilisib (first compound 0.06325 µM) worked out at 0.734; in the test with Veliparib + Pictilisib (first compound 0.2 µM), 0.675; with Veliparib + Pictilisib (first compound 0.6325 µM), 0.632; with Veliparib + Pictilisib (first compound 2 µM), 0.625; in test [1] (first compound 0.253 µM), 0.344; in test [1] (first compound 0.8 µM) it was 0.357. In addition, the relative viability came to 0.314 in test [1] (first compound 2.53 µM); 0.235 in test [1] (first compound 8 µM); 0.813 with Veliparib + Vorinostat (first compound 0.02 µM); 0.867 with Veliparib + Vorinostat (first compound 0.06325 µM); 0.867 with Veliparib + Vorinostat (first compound 0.2 µM); 0.842 with Veliparib + Vorinostat (first compound 0.6325 µM). The relative viability in the test with Veliparib + Vorinostat (first compound 2 µM) amounted to 0.934.
As to ABC-1, the relative viability came out at 0.702 with Veliparib + Pictilisib (first compound 0.06325 µM); 0.609 with Veliparib + Pictilisib (first compound 0.2 µM); 0.735 in the test with Veliparib + Pictilisib (first compound 0.6325 µM); 0.851 with Veliparib + Pictilisib (first compound 2 µM); 0.216 in test [1] (first compound 0.253 µM); 0.246 in test [1] (first compound 0.8 µM). The relative viability in test [1] (first compound 2.53 µM) was 0.296; in test [1] (first compound 8 µM) it was 0.234; with Veliparib + Vorinostat (first compound 0.2 µM) it was 0.979; in the test with Veliparib + Vorinostat (first compound 0.6325 µM), 1.37; with Veliparib + Vorinostat (first compound 2 µM) it was 0.875.
In the case of BEN, the relative viability in the test with Veliparib + Trametinib (first compound 0.02 µM) stood at 1.11; with Veliparib + Trametinib (first compound 0.06325 µM), 1.11; with Veliparib + Trametinib (first compound 0.2 µM), 1.06; in the test with Veliparib + Trametinib (first compound 0.6325 µM), 1.01; with Veliparib + Trametinib (first compound 2 µM), 1.08; in the test with Veliparib + Pictilisib (first compound 0.02 µM) it was 0.517. The relative viability is 0.572 with Veliparib + Pictilisib (first compound 0.06325 µM); 0.594 with Veliparib + Pictilisib (first compound 0.2 µM); 0.577 in the test with Veliparib + Pictilisib (first compound 0.6325 µM); 0.628 with Veliparib + Pictilisib (first compound 2 µM); 0.267 in test [1] (first compound 0.08 µM); 0.224 in test [1] (first compound 0.253 µM). Further, the relative viability in test [1] (first compound 0.8 µM) worked out at 0.263; in test [1] (first compound 2.53 µM) it was 0.269; in test [1] (first compound 8 µM), 0.259; with Veliparib + Vorinostat (first compound 0.02 µM) it was 0.544; with Veliparib + Vorinostat (first compound 0.06325 µM) it was 0.615; with Veliparib + Vorinostat (first compound 0.2 µM) it was 0.62. For the same cell line, the values for the relative viability with Veliparib + Vorinostat (first compound 0.6325 µM) and with Veliparib + Vorinostat (first compound 2 µM) were 0.614 and 0.593, respectively.
For the cell line CAL-12T, the relative viability in the test with Veliparib + Trametinib (first compound 0.02 µM) is 0.42; with Veliparib + Trametinib (first compound 0.06325 µM) it was 0.378; with Veliparib + Trametinib (first compound 0.2 µM) it was 0.328; with Veliparib + Trametinib (first compound 0.6325 µM), 0.256; in the test with Veliparib + Trametinib (first compound 2 µM), 0.374; in the test with Veliparib + Pictilisib (first compound 0.02 µM), 0.439. The relative viability in the test with Veliparib + Pictilisib (first compound 0.06325 µM) came out at 0.395; with Veliparib + Pictilisib (first compound 0.2 µM) it was 0.522; with Veliparib + Pictilisib (first compound 0.6325 µM), 0.386; with Veliparib + Pictilisib (first compound 2 µM), 0.351; in test [1] (first compound 0.08 µM), 0.643; in test [1] (first compound 0.253 µM) it was 0.563. Also, the relative viability worked out at 0.589 in test [1] (first compound 0.8 µM); 0.581 in test [1] (first compound 2.53 µM); 0.493 in test [1] (first compound 8 µM); 0.695 with Veliparib + Vorinostat (first compound 0.02 µM); 0.834 with Veliparib + Vorinostat (first compound 0.06325 µM); 0.729 with Veliparib + Vorinostat (first compound 0.2 µM). For the same cell line, the relative viability was 0.589 in the test with Veliparib + Vorinostat (first compound 0.6325 µM) and 0.886 in the test with Veliparib + Vorinostat (first compound 2 µM).
Consider COR-L23, for which the relative viability was 0.47 with Veliparib + Trametinib (first compound 0.02 µM); 0.609 in the test with Veliparib + Trametinib (first compound 0.06325 µM); 0.501 with Veliparib + Trametinib (first compound 0.2 µM); 0.539 in the test with Veliparib + Trametinib (first compound 0.6325 µM); 0.613 with Veliparib + Trametinib (first compound 2 µM); 0.722 in the test with Veliparib + Pictilisib (first compound 0.02 µM). Besides, the relative viability in the test with Veliparib + Pictilisib (first compound 0.06325 µM) was found to be 0.645; in the test with Veliparib + Pictilisib (first compound 0.2 µM) it was 0.697; in the test with Veliparib + Pictilisib (first compound 0.6325 µM) it was 0.536; with Veliparib + Pictilisib (first compound 2 µM), 0.774; in test [1] (first compound 0.08 µM) it was 0.369; in test [1] (first compound 0.253 µM) it was 0.441. Moreover, the relative viability in test [1] (first compound 0.8 µM) turned out to be 0.437; in test [1] (first compound 2.53 µM), 0.447; in test [1] (first compound 8 µM) it was 0.422; in the test with Veliparib + Vorinostat (first compound 0.02 µM), 0.604; with Veliparib + Vorinostat (first compound 0.06325 µM) it was 0.353; with Veliparib + Vorinostat (first compound 0.2 µM) it was 0.408. Moreover, the relative viability with Veliparib + Vorinostat (first compound 0.6325 µM) worked out at 0.445; in the test with Veliparib + Vorinostat (first compound 2 µM), 0.354.
As for COR-L 105, the relative viability with Veliparib + Trametinib (first compound 0.02 µM) amounted to 0.448; with Veliparib + Trametinib (first compound 0.06325 µM), 0.463; in the test with Veliparib + Trametinib (first compound 0.2 µM), 0.475; with Veliparib + Trametinib (first compound 0.6325 µM), 0.432; in the test with Veliparib + Trametinib (first compound 2 µM) it was 0.468; with Veliparib + Pictilisib (first compound 0.02 µM) it was 0.364. Also, the relative viability with Veliparib + Pictilisib (first compound 0.06325 µM) was 0.388; in the test with Veliparib + Pictilisib (first compound 0.2 µM), 0.351; with Veliparib + Pictilisib (first compound 0.6325 µM), 0.391; with Veliparib + Pictilisib (first compound 2 µM), 0.56; in test [1] (first compound 0.08 µM), 0.383; in test [1] (first compound 0.253 µM), 0.492. For the same cell line, the relative viability in test [1] (first compound 0.8 µM) came out at 0.335; in test [1] (first compound 2.53 µM) it was 0.34; in test [1] (first compound 8 µM) it was 0.271; in the test with Veliparib + Vorinostat (first compound 0.02 µM), 1.02; with Veliparib + Vorinostat (first compound 0.06325 µM) it was 0.823; with Veliparib + Vorinostat (first compound 0.2 µM), 0.869. For the same cell line, the relative viability with Veliparib + Vorinostat (first compound 0.6325 µM) was determined as 0.698; in the test with Veliparib + Vorinostat (first compound 2 µM) it was 0.813.

Values taken from the supplement of paper PMC10307832.
